In the case of `O=Cc1c(O)cccc1OCC(=O)N(C1CCOCC1)C1CCOCC1` [GBT001203, 2-(2-formyl-3-hydroxyphenoxy)-N,N-bis(tetrahydro-2H-pyran-4-yl)acetamide], the melting point is reported as 272 to 275 °C.

— patent US20180186807A1, “COMPOUNDS AND USES THEREOF FOR THE MODULATION OF HEMOGLOBIN” (Global Blood Therapeutics, Inc., priority 2013, published 2018)
